Target: SARS-CoV-2 PLpro (Severe acute respiratory syndrome coronavirus 2 (2019-nCoV) (SARS-CoV-2), UniProt P0DTD1)
Assay: PLpro enzymatic inhibition assay (IC50 value determination)
Type: biochemical
Conditions: 60 min preincubation for covalent inhibitors, 10 min for non-covalent, read-out: Inhibition of SARS-CoV-2 PLpro IC50 range

SMILES	IC50
C#CCNC(=O)CNC(=O)CNC1CCN([C@H](C)c2cccc3ccccc23)CC1 [Compound 12, (R)-2-((1-(1-(naphthalen-1-yl)ethyl)piperidin-4-yl)amino)-N-(2-oxo-2-(prop-2-yn-1-ylamino)ethyl)acetamide]	100 to 1000 nM
COC(=O)/C=C/CNC(=O)CNC(=O)CN(C(C)=O)C1CCN(C(C)c2cccc3ccccc23)CC1 (stereo not drawn) [Compound 13, methyl (E)-4-(2-(2-(N-(1-(1-(naphthalen-1-yl)ethyl)piperidin-4-yl)acetamido)acetamido)acetamido)but-2-enoate]	< 100 nM
COC(=O)/C=C/CNC(=O)CNC(=O)CN(C(=O)C(F)(F)F)C1CCN([C@H](C)c2cccc3ccccc23)CC1 [Compound 14, methyl (R,E)-4-(2-(2-(2,2,2-trifluoro-N-(1-(1-(naphthalen-1-yl)ethyl)piperidin-4-yl)acetamido)acetamido)acetamido)but-2-enoate]	100 to 1000 nM
CCC(=O)N(CC(=O)NCC(=O)NC/C=C/C(=O)OC)C1CCN(C(C)c2cccc3ccccc23)CC1 (stereo not drawn) [Compound 15, methyl (E)-4-(2-(2-(N-(1-(1-(naphthalen-1-yl)ethyl)piperidin-4-yl)propionamido)acetamido)acetamido)but-2-enoate]	< 100 nM
COC(=O)/C=C/CNC(=O)CNC(=O)CN(C(=O)CC(F)(F)F)C1CCN(C(C)c2cccc3ccccc23)CC1 (stereo not drawn) [Compound 16, methyl (E)-4-(2-(2-(3,3,3-trifluoro-N-(1-(1-(naphthalen-1-yl)ethyl)piperidin-4-yl)propanamido)acetamido)acetamido)but-2-enoate]	100 to 1000 nM
COC(=O)/C=C/CNC(=O)CNC(=O)CN(C(=O)C(C)C)C1CCN([C@H](C)c2cccc3ccccc23)CC1 [Compound 17, methyl (R,E)-4-(2-(2-(N-(1-(1-(naphthalen-1-yl)ethyl)piperidin-4-yl)isobutyramido)acetamido)acetamido)but-2-enoate]	100 to 1000 nM
CCCC(=O)N(CC(=O)NCC(=O)NC/C=C/C(=O)OC)C1CCN([C@H](C)c2cccc3ccccc23)CC1 [Compound 18, methyl (R,E)-4-(2-(2-(N-(1-(1-(naphthalen-1-yl)ethyl)piperidin-4-yl)butyramido)acetamido)acetamido)but-2-enoate]	< 100 nM
COC(=O)/C=C/CNC(=O)CNC(=O)CN(C(=O)CC(C)C)C1CCN([C@H](C)c2cccc3ccccc23)CC1 [Compound 19, methyl (R,E)-4-(2-(2-(3-methyl-N-(1-(1-(naphthalen-1-yl)ethyl)piperidin-4-yl)butanamido)acetamido)acetamido)but-2-enoate]	< 100 nM
COC(=O)/C=C/CNC(=O)CNC(=O)CN(C1CCN([C@H](C)c2cccc3ccccc23)CC1)S(N)(=O)=O [Compound 22, methyl (R,E)-4-(2-(2-((1-(1-(naphthalen-1-yl)ethyl)piperidin-4-yl)(sulfamoyl)amino)acetamido)acetamido)but-2-enoate]	< 100 nM
COC(=O)/C=C/CNC(=O)CNC(=O)CN(C1CCN([C@H](C)c2cccc3ccccc23)CC1)S(=O)(=O)NC(=O)OC(C)(C)C [Compound 23, methyl (R,E)-4-(2-(2-((N-(tert-butoxycarbonyl)sulfamoyl)(1-(1-(naphthalen-1-yl)ethyl)piperidin-4-yl)amino)acetamido)acetamido)but-2-enoate]	100 to 1000 nM
COC(=O)/C=C/CNC(=O)CNC(=O)CNC1CCN([C@H](C)c2cccc3ccccc23)CC1 [Compound 24, methyl (R,E)-4-(2-(2-((1-(1-(naphthalen-1-yl)ethyl)piperidin-4-yl)amino)acetamido)acetamido)but-2-enoate]	100 to 1000 nM
COC(=O)/C=C/CNC(=O)CNC(=O)CN(C)C1CCN([C@H](C)c2cccc3ccccc23)CC1 [Compound 25, methyl (R,E)-4-(2-(2-(methyl(1-(1-(naphthalen-1-yl)ethyl)piperidin-4-yl)amino)acetamido)acetamido)but-2-enoate]	< 100 nM
